Consider 13 compounds from patent US20120252865A1, “CARBAMATE DERIVATIVES IN PARTICULAR FOR THE TREATMENT OF NEUROLOGICAL DISORDERS” (SIGMA-TAU INDUSTRIE FARMACEUTICHE RIUNITE S.P.A., priority 2009, published 2012).

Where only a bound is given, the exact number is not on record here.

The target in assay [1] is T1, fatty acid amide hydrolase (FAAH, EC 3.5.1.4) (Mus musculus, UniProt O08914).
T1 construct: The reaction was initiated by the addition of mouse brain homogenate (40 μg); from tissue; host or cells: mouse brain homogenate
T1 sequence (O08914 1-579): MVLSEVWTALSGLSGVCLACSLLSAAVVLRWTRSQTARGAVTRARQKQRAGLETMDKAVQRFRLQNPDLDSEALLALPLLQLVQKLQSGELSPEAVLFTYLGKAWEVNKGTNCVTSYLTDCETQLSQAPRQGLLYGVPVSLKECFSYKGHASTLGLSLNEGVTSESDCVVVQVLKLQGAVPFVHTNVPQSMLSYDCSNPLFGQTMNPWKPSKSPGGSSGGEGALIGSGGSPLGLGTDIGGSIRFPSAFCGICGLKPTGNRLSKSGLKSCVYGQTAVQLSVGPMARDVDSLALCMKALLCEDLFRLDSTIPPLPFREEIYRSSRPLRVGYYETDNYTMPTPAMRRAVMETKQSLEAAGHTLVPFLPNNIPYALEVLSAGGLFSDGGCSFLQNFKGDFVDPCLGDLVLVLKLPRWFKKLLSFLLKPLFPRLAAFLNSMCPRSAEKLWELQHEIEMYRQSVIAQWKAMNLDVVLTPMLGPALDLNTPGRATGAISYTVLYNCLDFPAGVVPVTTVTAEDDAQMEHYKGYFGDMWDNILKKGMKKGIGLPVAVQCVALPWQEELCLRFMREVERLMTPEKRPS
Nature of the assay: FAAH assay: release of [1-14C]AA from [1-14C]AnNH by RP-HPLC. Format: biochemical. The conditions noted are these: mouse brain homogenate; for IC50: 37° C., 15 min, pH 9.0; for Ki: Lineweaver-Burk analysis. As for the experimental part:
The compounds of the present invention show affinity and inhibit the enzymatic activity of the fatty acid amide hydrolase enzyme.
The assay of FAAH (EC 3.5.1.4) was performed by measuring the release of [1-^14C]AA from [1-^14C]AnNH (52 mCi/mmol), using RP-HPLC. Also [^3H]AnNH (205 Ci/mmol) could be used as substrate, measuring the release of [^3H]AA under the same experimental conditions described below for [1-^14C]AnNH. Compounds of the invention, at various concentrations, were added in 200 μl hydrolase assay buffer (50 mM Tris-HCl, pH 9.0), in 2-ml Eppendorf tubes, 20 min before adding [1-^14C]AnNH2, up to a concentration of 10 μM. The reaction was initiated by the addition of mouse brain homogenate (40 μg), and after incubation at 37° C. for 15 min it was stopped by the addition of 800 μl ice-cold methanol/chloroform (2:1, v/v) with vortexing. This mixture was allowed to stand at room temperature for 30 min, then 240 μl chloroform and 240 μl water were added with vortexing. After 10 min at room temperature, the mixture was centrifuged at 3000 g for 5 min, the upper aqueous layer was removed by suction and the lower organic phase was dried by spinning the samples in a DNA MINI speedvac (Heto-Holten, Denmark), at 100 mbar and 30° C. for 30 min. The residue was dissolved into 50 μl methanol and subjected to RP-HPLC analysis for AA quantitation, as detailed below. FAAH specific activity was expressed as pmol AA released/min/mg protein. Kinetic studies were performed by Lineweaver-Burk analysis, using [1-^14C]AnNH, [1-^14C]ODNHEtOH, or [1-^14C]ODNH2 in the concentration range 0-12 μM. Fitting of the experimental points by a linear regression programme (Kaleidagraph 3.0) yielded straight lines with r values >0.97.

The test system of another assay is AMT. The assay is described as follows: Selectivity profile: AMT. In kind it is cell-based. The protocol: (§1) The compounds of the present invention were also evaluated with regard to their selectivity profile against the following targets: AMT, NAPE-PLD, MAGL, DAGL, CB1/CB2 and TRPV1 according to the procedures described in Maccarrone M., et al., J. Biol. Chem., 2000, 275, 13484, Fezza F., et al., Anal Biochem., 2005, 339, 113, Dinh T. P., et al., 2002, Proc. Natl. Acad. Sci. 99, 10819, Bisogno T., et al., 2003, J. Cell Biol., 163, 463, Maccarrone M., et al., J. Biol. Chem., 2000, 275, 31938, Ross R. A., et al., Br. J. Pharmacol., 2001, 132, 631.

The target of a further assay is CB1R (Homo sapiens, UniProt P21554). Nature of the assay: Selectivity profile: CB1R. In kind it is binding. The conditions noted are these: tested at a multiple of the FAAH IC50. The protocol:
as §1

Another assay addresses CB2R (Homo sapiens, UniProt P34972). The assay is described as follows: Selectivity profile: CB2R. Format: binding. The conditions noted are these: tested at a multiple of the FAAH IC50. As for the experimental part: as §1
The test system of another assay is DAGL. The assay is described as follows: Selectivity profile: DAGL. Format: biochemical. The following applies: tested at a multiple of the FAAH IC50. The protocol: as §1
Another assay concerns TRPV1. The assay is described as follows: Selectivity profile: TRPV1. In kind it is binding. The following applies: tested at a multiple of the FAAH IC50. As for the experimental part: as §1
Another assay addresses NAPE-PLD (Homo sapiens, UniProt Q6IQ20). Nature of the assay: Selectivity profile: NAPE-PLD. In kind it is biochemical. The conditions noted are these: tested at a multiple of the FAAH IC50. As for the experimental part: as §1
For a further assay, the target named is T2, MAGL (Homo sapiens, UniProt Q99685).
T2 sequence (Q99685 1-303): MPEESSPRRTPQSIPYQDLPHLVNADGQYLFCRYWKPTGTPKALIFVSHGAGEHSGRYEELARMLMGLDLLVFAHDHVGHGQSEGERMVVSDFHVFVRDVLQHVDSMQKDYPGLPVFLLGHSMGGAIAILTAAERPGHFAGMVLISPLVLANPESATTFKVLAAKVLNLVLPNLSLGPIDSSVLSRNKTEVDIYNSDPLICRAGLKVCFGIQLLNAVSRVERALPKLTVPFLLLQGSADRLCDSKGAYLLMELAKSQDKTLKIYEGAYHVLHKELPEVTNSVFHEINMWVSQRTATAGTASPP
The assay is described as follows: Selectivity profile: MAGL. Format: biochemical. The following applies: tested at a multiple of the FAAH IC50. The protocol:
as §1

Another assay concerns mechanical hyperalgesia. Nature of the assay: Paw withdrawal test for mechanical hyperalgesia (Randall-Selitto analgesimeter). The following applies: rat; for analgesic activity (nociceptive threshold, paw withdrawal): acute oral treatment, 30 mg/kg (FIG. 1). Format: in vivo. As for the experimental part: The paw withdrawal test was used to assess mechanical hyperalgesia. The nociceptive threshold, expressed in grams, was measured by applying increasing pressure to the left and right hind paws using a Randall-Selitto analgesimeter (Ugo Basile, Varese, Italy). The parameter used to quantify the nociceptive threshold was defined as the pressure (grams) at which the rat withdrew its paw. Rats were habituated to the testing procedures and handling by the investigator in the week prior to the experiment.
Dose response experiments at 10, 30 and 100 mg/kg were also conducted with ST4068, ST3911 and ST3913.

[2] abbreviates: 100 mg/kg, compared with 30 mg/kg (FIGS. 2, 3 and 4).

NAPE-PLD, sequence (Q6IQ20 whole entry, species assumed): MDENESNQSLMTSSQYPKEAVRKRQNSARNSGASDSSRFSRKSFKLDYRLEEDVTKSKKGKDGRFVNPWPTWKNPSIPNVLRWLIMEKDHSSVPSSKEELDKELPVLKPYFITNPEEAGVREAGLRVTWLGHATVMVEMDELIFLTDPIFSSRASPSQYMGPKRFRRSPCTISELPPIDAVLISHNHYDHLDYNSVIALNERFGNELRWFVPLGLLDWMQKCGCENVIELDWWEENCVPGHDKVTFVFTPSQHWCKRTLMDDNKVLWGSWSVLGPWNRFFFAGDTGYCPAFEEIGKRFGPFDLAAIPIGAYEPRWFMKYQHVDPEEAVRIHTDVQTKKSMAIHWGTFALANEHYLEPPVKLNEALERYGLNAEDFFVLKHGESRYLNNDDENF
CB2R, sequence (P34972 whole entry): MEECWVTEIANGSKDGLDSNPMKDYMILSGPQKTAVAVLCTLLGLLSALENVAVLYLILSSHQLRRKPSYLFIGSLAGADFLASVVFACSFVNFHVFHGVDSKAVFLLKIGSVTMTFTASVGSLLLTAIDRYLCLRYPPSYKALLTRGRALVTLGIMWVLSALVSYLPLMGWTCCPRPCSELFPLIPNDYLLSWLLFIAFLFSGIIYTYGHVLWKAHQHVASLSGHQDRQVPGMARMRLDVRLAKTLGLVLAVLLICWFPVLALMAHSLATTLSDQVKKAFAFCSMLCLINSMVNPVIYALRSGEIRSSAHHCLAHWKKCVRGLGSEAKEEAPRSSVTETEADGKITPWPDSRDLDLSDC
CB1R, sequence (P21554 whole entry): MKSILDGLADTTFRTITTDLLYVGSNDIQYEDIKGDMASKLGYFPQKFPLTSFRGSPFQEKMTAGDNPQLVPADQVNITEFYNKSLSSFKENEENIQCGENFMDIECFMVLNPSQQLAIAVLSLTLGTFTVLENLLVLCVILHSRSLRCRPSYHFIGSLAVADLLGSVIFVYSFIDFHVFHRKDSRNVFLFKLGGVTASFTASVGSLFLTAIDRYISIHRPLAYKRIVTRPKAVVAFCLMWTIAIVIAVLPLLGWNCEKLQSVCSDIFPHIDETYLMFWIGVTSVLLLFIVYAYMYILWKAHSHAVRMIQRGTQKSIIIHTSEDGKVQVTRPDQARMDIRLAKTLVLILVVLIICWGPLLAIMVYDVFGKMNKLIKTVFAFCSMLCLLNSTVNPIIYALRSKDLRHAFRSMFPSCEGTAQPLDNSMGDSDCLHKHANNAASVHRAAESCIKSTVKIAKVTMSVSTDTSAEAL

In [1], `CCCCNC(=O)Oc1cccc(-n2ccc(C(N)=O)c2)c1` [Example 1, butyl-carbamic acid 3-(3-carbamoyl-pyrrol-1-yl)-phenyl ester] displayed an IC50 of 100 to 500 nM and a Ki of 10 to 100 nM.

With `Cc1oc(-c2cccc(OC(=O)NCCCCCCc3ccccc3)c2)cc1C(N)=O` [Example 9, (6-phenyl-hexyl)-carbamic acid 3-(4-carbamoyl-5-methyl-furan-2-yl)-phenyl ester], in the assay with AMT, the “AMT, % @ 1 μM” value is 80% @ 1 μM. Moreover, the “inhibitory activity on CB1R” value against CB1R is “−−−− (1000 times [IC50] with an inhibitory activity on the target <60%)”. Further, the “inhibitory activity on CB2R” value against CB2R is “−−−− (1000 times [IC50] with an inhibitory activity on the target <60%)”. For the same compound, the “inhibitory activity on DAGL” value in the assay on DAGL was “−−−− (1000 times [IC50] with an inhibitory activity on the target <60%)”. The “inhibitory activity on TRPV1” value with TRPV1 is “−−−− (1000 times [IC50] with an inhibitory activity on the target <60%)”. Also, the “inhibitory activity on NAPE-PLD” value against NAPE-PLD was “−−−− (1000 times [IC50] with an inhibitory activity on the target <60%)”. Further, the “inhibitory activity on MAGL” value against MAGL is “−−−− (1000 times [IC50] with an inhibitory activity on the target <60%)”. In [1], this compound came in with an IC50 of 10 to 100 nM and a Ki of less than 10 nM.

In [1], `CCCCNC(=O)Oc1cccc(-c2oc(C)cc2C(=O)OCC)c1` [Example 10, 2-(3-butylcarbamoyloxy-phenyl)-5-methyl-furan-3-carboxylic acid ethyl ester] yielded an IC50 of 100 to 500 nM.

Regarding `Cc1cc(C(N)=O)c(-c2cccc(OC(=O)NCCCCCCc3ccccc3)c2)o1` [Example 6, (6-phenyl-hexyl)-carbamic acid 3-(3-carbamoyl-5-methyl-furan-2-yl)-phenyl ester], the “analgesic activity, dose response” value in the assay with mechanical hyperalgesia (30 mg/kg (FIGS. 2, 3 and 4)) is “did exert analgesic activity”. In the assay with mechanical hyperalgesia (setting [2]), the “analgesic activity, dose response” value is on record as “higher effect”. Further, the “analgesic activity (nociceptive threshold, paw withdrawal)” value with mechanical hyperalgesia is given as “significant analgesic activity”. In [1], this compound had an IC50 of less than 10 nM and a Ki of less than 10 nM.

`CCCCNC(=O)Oc1cccc(-n2ccc(C(=O)OCCCCCCc3ccccc3)c2)c1` [Example 12, 1-(3-butylcarbamoyloxy-phenyl)-1H-pyrrole-3-carboxylic acid 6-phenyl-hexyl ester] registered an IC50 in assay [1] of 100 to 500 nM.

In [1], `CCCCNC(=O)Oc1cccc(-c2oc(C)cc2C(N)=O)c1` [Example 5, butyl-carbamic acid 3-(3-carbamoyl-5-methyl-furan-2-yl)-phenyl ester] showed a half-inhibitory concentration (IC50) of 500 to 5000 nM and a Ki of 100 to 500 nM.

Compound `Cc1oc(-c2cccc(OC(=O)NC3CCCCC3)c2)cc1C(N)=O` [Example 8, cyclohexyl-carbamic acid 3-(4-carbamoyl-5-methyl-furan-2-yl)-phenyl ester] came in with a 50% inhibitory concentration (IC50) in [1] of 100 to 500 nM.

In [1], `Cc1cc(C(N)=O)c(-c2cccc(OC(=O)NC3CCCCC3)c2)s1` [Example 14, cyclohexyl-carbamic acid 3-(3-carbamoyl-5-methyl-thiophen-2-yl)-phenylester] came in with an IC50 of 100 to 500 nM.

Regarding `C#CCCCCCCCCCNC(=O)Oc1cccc(-n2ccc(C(N)=O)c2)c1` [Example 2, undec-10-ynyl-carbamic acid 3-(3-carbamoyl-pyrrol-1-yl)-phenyl ester], in the assay on mechanical hyperalgesia (30 mg/kg (FIGS. 2, 3 and 4)), the “analgesic activity, dose response” value is given as “did exert analgesic activity”. The “analgesic activity, dose response” value with mechanical hyperalgesia (setting [2]) is “higher effect”. Besides, the “analgesic activity (nociceptive threshold, paw withdrawal)” value in the assay with mechanical hyperalgesia was “significant analgesic activity”. In assay [1], this compound showed a half-inhibitory concentration (IC50) of less than 10 nM and a Ki of less than 10 nM.

Take `Cc1cc(C(N)=O)c(-c2cccc(OC(=O)NC3CCCCC3)c2)o1` [Example 13, cyclohexyl-carbamic acid 3-(3-carbamoyl-5-methyl-furan-2-yl)-phenyl ester]: the half-inhibitory concentration (IC50) in [1] is 100 to 500 nM.

`Cc1cc(C(N)=O)c(-c2cccc(OC(=O)NCCCCCCc3ccccc3)c2)s1` [Example 7, (6-phenyl-hexyl)-carbamic acid 3-(3-carbamoyl-5-methyl-thiophen-2-yl)-phenyl ester]: the “AMT, % @ 1 μM” value in the assay with AMT is on record as 60% @ 1 μM. The “inhibitory activity on CB1R” value at CB1R was “−−−− (1000 times [IC50] with an inhibitory activity on the target <60%)”. For the same compound, the “inhibitory activity on CB2R” value on CB2R is “−−−− (1000 times [IC50] with an inhibitory activity on the target <60%)”. In addition, the “inhibitory activity on NAPE-PLD” value at NAPE-PLD is “−−−− (1000 times [IC50] with an inhibitory activity on the target <60%)”. The “inhibitory activity on MAGL” value against MAGL was “−−−− (1000 times [IC50] with an inhibitory activity on the target <60%)”. In assay [1], the half-inhibitory concentration (IC50) is less than 10 nM and the inhibition constant (Ki) is less than 10 nM.

On to `NC(=O)c1ccn(-c2cccc(OC(=O)NC3CCCCC3)c2)c1` [Example 3, cyclohexyl-carbamic acid 3-(3-carbamoyl-pyrrol-1-yl)-phenyl ester], for which, in [1], the IC50 lay within 100 to 500 nM and the Ki was 10 to 100 nM.

Compound `C#CCCCCCCCCCOC(=O)c1ccn(-c2cccc(OC(=O)NCCCC)c2)c1` [Example 11, 1-(3-butylcarbamoyloxy-phenyl)-1H-pyrrole-3-carboxylic acid undec-10-ynyl ester] returned a 50% inhibitory concentration (IC50) in assay [1] of 100 to 500 nM.

As a reminder, the IC50 is the concentration that inhibits the measured activity by half. A low value points to greater potency. What is called Ki is a measure of affinity in units of concentration, obtained from inhibition or displacement. Lower therefore signals tighter binding.
